Data from patent publication US20100056468A1, “Pyrimidine Derivatives As Anticancer Agents” (University Health Network, priority 2007, published 2010).
Where two headings read alike, the source gives them in different places.

Columns and labels:
[1] = molecular target: Mt ODCase (Methanothermobacter thermautotrophicus, UniProt O26232); conditions: read-out: inhibition constant (Ki), Mt ODCase; cited from earlier work
[2] = tested on: PBMC - Peripheral blood mononuclear cells; assay: WST-1 cell growth assay on stimulated PBMCs (Table 3); type: cell-based, human
[3] = tested on: 70Z/3 murine acute lymphoblastic leukemia; assay: In vivo pilot study on 70Z/3 leukemic mice
Experimental: (§1) In a pilot study, first the in vivo effects of compound Ic in a murine tumor model (70Z/3) were studied. […]. In this pilot study, 10^6 70Z/3 cells were injected into syngeneic mice (C57BL6×DBA/2) after which the mice were treated with compound Ic on days 2, 3, 4, 7, 8, and 9 at doses of 0.15 mg/kg or 1.5 mg/kg or with PBS. Some mice were also treated with the compound alone to test for toxic effects in the absence of tumor growth. On day 10, two mice from each group were euthanized and they were examined for the presence of disease. After 70Z/3 cells are injected they home to the spleen and proliferate causing increased spleen weight and cellularity. […]. Two additional mice from each group were followed for an additional 7 days during which mice in the treatment groups were treated daily.

[4] = tested on: CCD967; assay: WST-1 cell growth assay (Table 3); type: cell-based; conditions: Homo sapiens, CCD-967, 72 h; CCD967 skin fibroblast line, 3 days
Experimental: (§2) Thirteen C6 substituted nucleoside derivatives were tested against seventeen cancer cell lines in order to understand their anticancer activity potential. Cell growth was measured in 96 well plates (6 replicates per dose) in which 10^4 cells were seeded for 3 days with a range of concentrations of compound Ic and Id using the Roche WST-1 assay (Ishiyama M et al (1995) In Vitro Toxicology 8, 187-189) following manufactures directions.

[5] = tested on: SKW3; assay: WST-1 cell growth assay (Table 3); type: cell-based; conditions: Homo sapiens, 72 h; SKW3 T cell leukemia, 3 days
Experimental: as §2

[6] = tested on: OVCAR4; assay: WST-1 cell growth assay (Table 3); type: cell-based; conditions: Homo sapiens, OVCAR-4, 72 h; OVCAR4 ovarian adenocarcinoma, 3 days
Experimental: as §2

[7] = tested on: PPC1; assay: WST-1 cell growth assay (Table 3); type: cell-based; conditions: Homo sapiens, PPC-1, 72 h; PPC1 prostate, 3 days
Experimental: as §2

[8] = tested on: PC3; assay: WST-1 cell growth assay (Table 3); type: cell-based; conditions: Homo sapiens, PC-3, 72 h; PC3 prostate adenocarcinoma, 3 days
Experimental: as §2

[9] = tested on: T47D; assay: WST-1 cell growth assay (Table 3); type: cell-based; conditions: Homo sapiens, 72 h; T47D breast adenocarcinoma, 3 days
Experimental: as §2

[10] = tested on: OCI AML2; assay: WST-1 cell growth assay (Table 3); type: cell-based; conditions: Homo sapiens, 72 h; OCI AML2 myloid leukemia, 3 days
Experimental: as §2

[11] = tested on: LOX; assay: WST-1 cell growth assay (Table 3); type: cell-based; conditions: Homo sapiens, 72 h; LOX melanoma, 3 days
Experimental: as §2

[12] = tested on: SNB19; assay: WST-1 cell growth assay (Table 3); type: cell-based; conditions: Homo sapiens, SNB-19, 72 h; SNB19 glioblastoma, 3 days
Experimental: as §2

[13] = tested on: OCI MY2; assay: WST-1 cell growth assay (Table 3); type: cell-based; conditions: Homo sapiens, 72 h; OCI MY2 myeloma, 3 days
Experimental: as §2

[14] = tested on: COLO205; assay: WST-1 cell growth assay (Table 3); type: cell-based; conditions: Homo sapiens, COLO 205, 72 h; COLO205 colorectal adenocarcinoma, 3 days
Experimental: as §2

[15] = tested on: OCI LY7; assay: WST-1 cell growth assay (Table 3); type: cell-based; conditions: Homo sapiens, 72 h; OCI LY7 B cell lymphoma, 3 days
Experimental: as §2

[16] = tested on: MCF7; assay: WST-1 cell growth assay (Table 3); type: cell-based; conditions: Homo sapiens, 72 h; MCF7 breast adenocarcinoma, 3 days
Experimental: as §2

[17] = tested on: MDA-MB-468; assay: WST-1 cell growth assay (Table 3); type: cell-based; conditions: Homo sapiens, 72 h; MDA-MB-468 breast adenocarcinoma, 3 days
Experimental: as §2

[18] = tested on: HS578T; assay: WST-1 cell growth assay (Table 3); type: cell-based; conditions: Homo sapiens, Hs-578T, 72 h; HS578T breast carcinosarcoma, 3 days
Experimental: as §2

[19] = tested on: OCI AML1; assay: WST-1 cell growth assay (Table 3); type: cell-based; conditions: Homo sapiens, 72 h; OCI AML1 myloid leukemia, 3 days
Experimental: as §2

[20] = tested on: 70Z/3 (murine); assay: WST-1 cell growth assay (Table 3); type: cell-based; conditions: Mus musculus, 72 h; 70Z/3 murine B cell leukemia, 3 days
Experimental: as §2
In a pilot study, first the in vivo effects of compound Ic in a murine tumor model (70Z/3) were studied. This murine model served to provide the baseline for toxicity data in a tumor setting. […] In this pilot study, 10^6 70Z/3 cells were injected into syngeneic mice (C57BL6×DBA/2) after which the mice were treated with compound Ic on days 2, 3, 4, 7, 8, and 9 at doses of 0.15 mg/kg or 1.5 mg/kg or with PBS. Some mice were also treated with the compound alone to test for toxic effects in the absence of tumor growth. On day 10, two mice from each group were euthanized and they were examined for the presence of disease. After 70Z/3 cells are injected they home to the spleen and proliferate causing increased spleen weight and cellularity. […] It would appear from this very small pilot study that mice can tolerate a dose of the drug which is ten times more than a dose which reduces tumor expansion in the spleen (FIG. 4 and Table 2). […]

[21] = Tolerance in NOD-SCID mice; type: in vivo; conditions: 0.15 mg/kg and 1.5 mg/kg
Experimental: as §1

[22] = tested on: leukemia/lymphoma and breast cancer cell lines (AML1, AML2, SKW3, OCI LY7, OCI MY2, MDA-MB-468 and MCF7); assay: WST-1 cell growth assay, summary over cell lines; type: cell-based; conditions: Homo sapiens, read-out: Inhibition constants (IC50s), range over cell lines
Experimental: as §2

[23] = tested on: mouse L1210 leukemia cells; conditions: 25 μM, cultured mouse L1210 leukemia cells; cited from earlier work
[24] = molecular target: ODCase; conditions: cited from earlier work
[25] = Homo sapiens, volunteer, read-out: IC50
[26] = healthy human PBMCs stimulated with concanavalin A and phorbol myristate acetate, read-out: inhibitory constants (IC50's)

Sequence of Mt ODCase (O26232 whole entry): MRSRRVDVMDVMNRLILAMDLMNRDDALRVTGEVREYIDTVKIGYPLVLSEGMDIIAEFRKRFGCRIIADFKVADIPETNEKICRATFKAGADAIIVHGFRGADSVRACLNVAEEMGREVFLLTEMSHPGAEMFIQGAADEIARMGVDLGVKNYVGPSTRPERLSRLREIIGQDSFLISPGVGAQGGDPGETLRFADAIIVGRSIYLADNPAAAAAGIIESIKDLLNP

In the case of `O=c1cnn([C@@H]2O[C@H](COP(=O)(O)O)[C@@H](O)[C@H]2O)c(=O)[nH]1` [6-Aza-uridine uridine 5′-monophosphate, 6-aza-uridine 5′-monophosphate], the Ki [1] is given as 11 µM.

With `Nc1cc(=O)[nH]c(=O)n1[C@@H]1O[C@H](CO)[C@@H](O)[C@H]1O` [Ic, 6-Amino uridine] the IC50 [2, 25] was over 10 µM, the IC50 [2, 26] was over 10 µM and the disease progression ([3]; followed for an additional 7 days, treated daily, untreated mice died on days 11 and 13) was “no sign of disease progression”. For the same molecule, the “spleen weight and cellularity” value ([3]; mice injected with 10^6 70Z/3 cells, 0.15 mg/kg or 1.5 mg/kg on days 2, 3, 4, 7, 8, 9, day 10) was “indistinguishable from the control mice”, the “spleen weight or cellularity, compound alone” value ([3]; mice without tumor, compound alone, day 10) was “did not influence spleen weight or cellularity” and the IC50 [4] was over 4 µM. For the same molecule, the IC50 [5] was 0.8 ± 0.1 µM, the IC50 [6] was over 4 µM and the IC50 [7] was over 4 µM. The IC50 [8] was over 4 µM, the IC50 [9] was over 4 µM and the IC50 [10] was 0.9 ± 0.1 µM. It also gave an IC50 [11] of over 4 µM, an IC50 [12] of over 4 µM and an IC50 [13] of over 4 µM. The IC50 [14] was over 4 µM, the IC50 [15] was 1.8 ± 0.1 µM and the IC50 [16] was 1.5 ± 0.1 µM. The IC50 [17] was 3.7 ± 0.1 µM, the IC50 [18] was over 4 µM and the IC50 [19] was 0.8 ± 0.1 µM. For the same molecule, the IC50 [20] was 0.3 µM, the tolerance [21] was “tolerated these doses without apparent toxicity” and the IC50 [22] was 0.7 to 3.5 µM.

In the case of `NC(=O)c1[nH]nc([C@@H]2O[C@H](CO)[C@@H](O)[C@H]2O)c1O` [pyrazofurin], the “accumulation of OMP” value [23] is given as “eight-fold increase”.

For `NC(=O)c1[nH]nc(C2OC(COP(=O)(O)O)C(O)C2O)c1O` (centres unmarked) [Pyrazofurin 5′-monophosphate], the Ki [24] is listed as 0.005 µM.

With `[N-]=[N+]=Nc1cc(=O)[nH]c(=O)n1[C@@H]1O[C@H](CO)[C@@H](O)[C@H]1O` [Id, 6-Azido uridine] the IC50 [2, 25] was over 10 µM, the IC50 [2, 26] was over 10 µM and the IC50 [4] was over 4 µM. The IC50 [5] was 0.7 ± 0.1 µM, the IC50 [6] was over 4 µM and the IC50 [7] was over 4 µM. For the same molecule, the IC50 [8] was over 4 µM, the IC50 [9] was over 4 µM and the IC50 [10] was 0.8 ± 0.2 µM. For the same molecule, the IC50 [11] was 3.8 ± 0.2 µM, the IC50 [12] was over 4 µM and the IC50 [13] was 3.8 µM. For the same molecule, the IC50 [14] was over 4 µM, the IC50 [15] was 1 ± 0.2 µM and the IC50 [16] was 1 ± 0.2 µM. For the same molecule, the IC50 [17] was 2.5 ± 0.3 µM, the IC50 [18] was over 4 µM and the IC50 [19] was 0.7 ± 0.1 µM. The IC50 [20] was 0.2 µM and the IC50 [22] was 0.7 to 3.5 µM.
